According to patent US6403639B1, “2,3-dihydrobenzofuran derivatives” (Chugai Seiyaku Kabushiki Kaisha, priority 1997, dated 2002):
Like-named read-outs stand apart in the source and are kept apart here.

Experiments:
[1] = test system: porcine kidney-derived LLC-PK1 cells; experiment: Protective effect against cell injury of porcine kidney-derived LLC-PK1 cells (2), oxidized LDL-induced LDH leakage; format: cell-based
Description: The oxidized LDL was prepared by placing 1 mg/ml of rabbit LDL in PBS (−) in the presence of 10 μM CuSO4 at 37° C. for 24 hours. Cell cultures were prepared by inoculating 1.25×10^4 cells/250 μl/well on a 48-well plate using M199 medium containing 3% FBS. Test compounds were dissolved or suspended in ethanol and added at a ratio of 1.25 μl/well 16 hours before or immediately before addition of the oxidized LDL to a concentration of 0.1, 1 or 10 μM in each well. The oxidized LDL was diluted twice with physiological saline and then added to cells at 62.5 μl/well to a concentration of 100 μg/ml and the cells were incubated for 6 hours after addition of the oxidized LDL. After the incubation, 162.5 μl of the culture medium was collected from each of the wells and measured for the lactate dehydrogenase (LDH) activity (Lactate Dehydrogenase (LD-L): SIGNA DIAGNOSTICS) which has leaked into the culture medium.
(§1) The cytoprotective effect was expressed as a % cytoprotection where the effect in wells containing the oxidized LDL but without any test compound is 0% and the effect in wells containing physiological saline in place of the oxidized LDL is 100%.
For the purpose of evaluating in vitro cytoprotective effect of the compounds of the present invention, protective effect against cell injury of porcine kidney-derived LLC-PK1 cells (ATCC-CRL-13921) induced by oxidized low-density lipoprotein (oxidized LDL) was examined in the same manner as in Test example 1.
Preparation of oxidized LDL and conditions for cell culture and addition of test compounds were the same as those in Test example 1, except that the oxidized LDL was not diluted with physiological saline and added to cells at 25 μl/well to a concentration of 91 μg/ml and the cells were incubated for 6 hours after addition of oxidized LDL. After the incubation, 150 μl of the culture medium was collected from each of the wells and measured for the lactate dehydrogenase (LDH) activity (Lactate Dehydrogenase (LD-L): SIGMA DIAGNOSTICS) which has leaked in the culture medium.

cultured mesangial cells = experiment: Protective effect against cell injury of cultured mesangial cells, oxidized LDL-induced LDH leakage; format: cell-based, rats
Description: For the purpose of evaluating in vitro cytoprotective effect of the compounds of the present invention, protective effect against cell injury of cultured mesangial cells induced by oxidized low-density lipoprotein (LDL) was examined. The cells used were subcultures after 4 to 6 passages of the primary cultures of mesangial cells prepared from kidney of 4-week-old SD-strain male rats (Nippon Charles River Corp.).
The oxidized LDL was prepared by placing 1 mg/ml of rabbit LDL in PBS (−) in the presence of 10 μM CuSO4 at 37° C. for 24 hours. Cell cultures were prepared by inoculating 2.5×10^4 cells/250 μl/well on a 48-well plate using RPMI1640 medium containing 20% FBS. Immediately before addition of test compounds, the medium was replaced with RPMI1640 free from FBS. Test compounds were dissolved or suspended in ethanol and added at 1.25 μl/well 16 hours before or immediately before addition of the oxidized LDL to a concentration of 1, 3 or 10 μM in each well. Unlike Test example 1, the oxidized LDL was not diluted with physiological saline and added to cells at 25 μl/well to a concentration of 91 μg/ml and the cells were incubated for 8 hours after addition of the oxidized LDL. After the incubation, 150 μl of the culture medium was collected from each of the wells and measured for the lactate dehydrogenase activity (Lactate Dehydrogenase (LD-L): SIGMA DIAGNOSTICS) which has leaked in the culture medium.
as §1

[2] = Sus scrofa, LLC-PK1; 0.1 μM; test compounds added 16 hours before addition of oxidized LDL; oxidized LDL 91 μg/ml, 6 hours; read-out: % cytoprotection 1)
[3] = Sus scrofa, LLC-PK1; 0.1 μM; test compounds added immediately before addition of oxidized LDL; oxidized LDL 91 μg/ml, 6 hours; read-out: % cytoprotection 2)
[4] = Sus scrofa, LLC-PK1; 1 μM; test compounds added 16 hours before addition of oxidized LDL; oxidized LDL 91 μg/ml, 6 hours; read-out: % cytoprotection 1)
[5] = Sus scrofa, LLC-PK1; 1 μM; test compounds added immediately before addition of oxidized LDL; oxidized LDL 91 μg/ml, 6 hours; read-out: % cytoprotection 2)
[6] = Sus scrofa, LLC-PK1; 10 μM; test compounds added 16 hours before addition of oxidized LDL; oxidized LDL 91 μg/ml, 6 hours; read-out: % cytoprotection 1)
[7] = Sus scrofa, LLC-PK1; 10 μM; test compounds added immediately before addition of oxidized LDL; oxidized LDL 91 μg/ml, 6 hours; read-out: % cytoprotection 2)
[8] = Rattus norvegicus, Mesangial cell; 1 μM; test compounds added 16 hours before addition of oxidized LDL; oxidized LDL 91 μg/ml, 8 hours; read-out: % cytoprotection 1)
[9] = Rattus norvegicus, Mesangial cell; 1 μM; test compounds added immediately before addition of oxidized LDL; oxidized LDL 91 μg/ml, 8 hours; read-out: % cytoprotection 2)
[10] = Rattus norvegicus, Mesangial cell; 3 μM; test compounds added 16 hours before addition of oxidized LDL; oxidized LDL 91 μg/ml, 8 hours; read-out: % cytoprotection 1)
[11] = Rattus norvegicus, Mesangial cell; 3 μM; test compounds added immediately before addition of oxidized LDL; oxidized LDL 91 μg/ml, 8 hours; read-out: % cytoprotection 2)

SMILES	inhibition at 0.1 µM [1, 2] [%]	inhibition at 0.1 µM [1, 3] [%]	inhibition at 1 µM [1, 4] [%]	inhibition at 1 µM [1, 5] [%]	inhibition at 10 µM [1, 6] [%]	inhibition at 10 µM [1, 7] [%]	inhibition at 1 µM (cultured mesangial cells; [8]) [%]	inhibition at 1 µM (cultured mesangial cells; [9]) [%]	inhibition at 3 µM (cultured mesangial cells; [10]) [%]	inhibition at 3 µM (cultured mesangial cells; [11]) [%]
CC1(C)Cc2c(c(C(C)(C)C)cc(O)c2C(C)(C)C)O1 [Example 4, 4,7-Di-t-butyl-5-hydroxy-2,2-dimethyl-2,3-dihydrobenzofuran]	11.3	14.4	100	99	98.3	99.8	31.1 ± 5.4	32.5 ± 1.9	66.4 ± 5.9	54.3 ± 9.7
CC(C)(C)c1cc2c(cc1O)CC1(CCCCCC1)O2 [Example 7, 6-t-Butyl-5-hydroxy-2,3-dihydrobenzofuran-2-spiro-1′-cycloheptane]	19.1	14.7	104	104	105	105	19.3 ± 2.8	22 ± 1.9	18.1 ± 4.1	24.5 ± 0.8
CCCc1c(O)c(C(C)(C)C)cc2c1CC1(CCCCCC1)O2 [Example 9, 6-t-Butyl-5-hydroxy-4-n-propyl-2,3-dihydrobenzofuran-2-spiro-1′-cycloheptane]	12.9	11.5	47.7	58.9	104	104	14.4 ± 5.1	29.6 ± 2	56.2 ± 9.3	46.3 ± 1.7
CC(C)Cc1c(O)c(C(C)(C)C)cc2c1CC1(CCCCCC1)O2 [Example 11, 6-t-Butyl-5-hydroxy-4-(2-methylpropyl)-2,3-dihydrobenzofuran-2-spiro-1′-cycloheptane]	-2.7	-20.4	53.4	88.7	102	103	-3.5 ± 9.1	4.8 ± 5.1	13.8 ± 7.8	41.3 ± 1
C=CC(C)c1c(O)c(C(C)(C)C)cc2c1CC1(CCCCCC1)O2 (stereo not shown) [Example 12, 6-t-Butyl-5-hydroxy-4-(1-methyl-2-propenyl)-2,3-dihydrobenzofuran-2-spiro-1′-cycloheptane]	-15.5	-8.4	77.9	79.4	102	102	11.8 ± 2.6	17.4 ± 4	37.9 ± 8.3	42.8 ± 3.7
CCC(C)c1c(O)c(C(C)(C)C)cc2c1CC1(CCCCCC1)O2 (stereo not shown) [Example 13, 6-t-Butyl-5-hydroxy-4-(1-methylpropyl)-2,3-dihydrobenzofuran-2-spiro-1′-cycloheptane]	5.5	3.4	13.6	9.9	100	100	1.7 ± 2.9	-4.3 ± 5.1	18.4 ± 9.2	11.1 ± 4.3
Cc1c(O)c(C(C)(C)C)cc2c1CC1(CCCCCC1)O2 [Example 14-(1), 6-t-Butyl-5-hydroxy-4-methyl-2,3-dihydrobenzofuran-2-spiro-1′-cycloheptane]	-6.5	-9.2	103	101	104	103	19.7 ± 7.7	34.4 ± 1.5	59.3 ± 2.1	43.2 ± 2.8
CCc1c(O)c(C(C)(C)C)cc2c1CC1(CCCCCC1)O2 [Example 14-(2), 6-t-Butyl-4-ethyl-5-hydroxy-2,3-dihydrobenzofuran-2-spiro-1′-cycloheptane]	-14.3	-13.9	103	99.4	104	105	6.6 ± 8.4	23.1 ± 1.2	52.7 ± 14.3	45.6 ± 1.8
CC(C)(C)c1cc2c(cc1O)CCO2 [Example 15, 6-t-Butyl-5-hydroxy-2,3-dihydrobenzofuran]	–	–	–	–	–	–	-4 ± 3.5	-14.6 ± 3.3	33.6 ± 11.5	5.4 ± 5.1
CC1Cc2cc(O)c(C(C)(C)C)cc2O1 (stereo not shown) [Example 16, 6-t-Butyl-5-hydroxy-2-methyl-2,3-dihydrobenzofuran]	12.7	7.6	99.7	90.8	103	103	50.6 ± 5.9	18.7 ± 1.3	45.3 ± 9.4	28.3 ± 6.2
CCC1(CC)Cc2c(cc(C(C)C)c(O)c2C(C)C)O1 [Example 17, 2,2-Diethyl-5-hydroxy-4,6-diisopropyl-2,3-dihydrobenzofuran]	40.5	22.1	99.9	101	99.9	98.4	–	–	–	–
CC(C)c1cc2c(c(C(C)C)c1O)CC(C)(C)O2 [Example 18, 5-Hydroxy-2,2-dimethyl-4,6-diisopropyl-2,3-dihydrobenzofuran]	12.1	-1.9	100	99.7	100	101	–	–	–	–
Cc1c(O)c(C(C)(C)C)cc2c1CC(C)(C)O2 [Example 19, 6-t-Butyl-5-hydroxy-2,2,4-trimethyl-2,3-dihydrobenzofuran]	31.1	13.2	104	102	102	102	–	–	–	–
CC(C)c1c(O)c(C(C)(C)C)cc2c1CC(C)(C)O2 [Example 20-(1), 6-t-Butyl-5-hydroxy-2,2-dimethyl-4-isopropyl-2,3-dihydrobenzofuran]	-4.8	-24	100	100	104	100	–	–	–	–
CC(C)c1cc2c(c(C(C)(C)C)c1O)CC(C)(C)O2 [Example 20-(2), 4-t-Butyl-5-hydroxy-2,2-dimethyl-6-isopropyl-2,3-dihydrobenzofuran]	95.3	61.9	98.1	97.8	97.3	99.1	–	–	–	–
